Where a SMILES comes first, the peptide text is derived from it. [ ]: non-standard residue; d: D form. Inp = O=C(O)C1CCNCC1
What was measured:
[1] = biological target: T1, fibrinogen binding to thrombin-stimulated platelets (GPIIb/IIIa fibrinogen receptor) (Homo sapiens, UniProt P05106+P08514); experiment: Inhibition of radiolabeled (125I) fibrinogen binding assay; conditions: thrombin-stimulated washed platelets; 125I-fibrinogen held at 0.176 μmol/liter (60 μg/ml); 22°-25° C.
T1 construct: endogenous in cells; host or cells: washed platelets, thrombin-stimulated
T1 sequence (P08514 32-887 limits assumed): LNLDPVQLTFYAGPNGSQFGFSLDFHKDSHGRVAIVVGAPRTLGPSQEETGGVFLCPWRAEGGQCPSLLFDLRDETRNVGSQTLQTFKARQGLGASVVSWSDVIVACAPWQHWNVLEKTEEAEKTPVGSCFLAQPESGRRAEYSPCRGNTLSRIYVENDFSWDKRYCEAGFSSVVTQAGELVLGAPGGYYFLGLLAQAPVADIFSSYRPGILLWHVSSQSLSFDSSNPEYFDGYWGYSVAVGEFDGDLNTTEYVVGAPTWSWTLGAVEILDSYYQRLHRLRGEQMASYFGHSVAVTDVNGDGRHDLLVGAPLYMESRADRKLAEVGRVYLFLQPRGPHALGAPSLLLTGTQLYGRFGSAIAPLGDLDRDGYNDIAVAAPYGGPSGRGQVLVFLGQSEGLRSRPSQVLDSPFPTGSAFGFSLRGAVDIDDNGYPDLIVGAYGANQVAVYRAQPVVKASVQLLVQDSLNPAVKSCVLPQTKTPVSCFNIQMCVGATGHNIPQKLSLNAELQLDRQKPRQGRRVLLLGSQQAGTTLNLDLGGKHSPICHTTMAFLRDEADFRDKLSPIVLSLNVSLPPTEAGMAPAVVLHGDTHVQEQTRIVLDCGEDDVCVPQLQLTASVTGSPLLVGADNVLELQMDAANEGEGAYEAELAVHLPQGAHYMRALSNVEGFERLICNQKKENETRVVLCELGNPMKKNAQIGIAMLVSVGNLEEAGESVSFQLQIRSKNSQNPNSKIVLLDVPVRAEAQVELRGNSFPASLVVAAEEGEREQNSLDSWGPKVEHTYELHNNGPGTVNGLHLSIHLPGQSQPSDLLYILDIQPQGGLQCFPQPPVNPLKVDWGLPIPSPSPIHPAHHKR
T1 sequence (P08514 891-1039 limits assumed): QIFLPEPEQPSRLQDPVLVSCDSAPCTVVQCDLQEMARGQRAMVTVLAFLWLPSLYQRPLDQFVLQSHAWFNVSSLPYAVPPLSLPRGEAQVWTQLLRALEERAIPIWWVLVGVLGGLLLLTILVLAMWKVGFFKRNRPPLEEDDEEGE
T1 sequence (P05106 27-788): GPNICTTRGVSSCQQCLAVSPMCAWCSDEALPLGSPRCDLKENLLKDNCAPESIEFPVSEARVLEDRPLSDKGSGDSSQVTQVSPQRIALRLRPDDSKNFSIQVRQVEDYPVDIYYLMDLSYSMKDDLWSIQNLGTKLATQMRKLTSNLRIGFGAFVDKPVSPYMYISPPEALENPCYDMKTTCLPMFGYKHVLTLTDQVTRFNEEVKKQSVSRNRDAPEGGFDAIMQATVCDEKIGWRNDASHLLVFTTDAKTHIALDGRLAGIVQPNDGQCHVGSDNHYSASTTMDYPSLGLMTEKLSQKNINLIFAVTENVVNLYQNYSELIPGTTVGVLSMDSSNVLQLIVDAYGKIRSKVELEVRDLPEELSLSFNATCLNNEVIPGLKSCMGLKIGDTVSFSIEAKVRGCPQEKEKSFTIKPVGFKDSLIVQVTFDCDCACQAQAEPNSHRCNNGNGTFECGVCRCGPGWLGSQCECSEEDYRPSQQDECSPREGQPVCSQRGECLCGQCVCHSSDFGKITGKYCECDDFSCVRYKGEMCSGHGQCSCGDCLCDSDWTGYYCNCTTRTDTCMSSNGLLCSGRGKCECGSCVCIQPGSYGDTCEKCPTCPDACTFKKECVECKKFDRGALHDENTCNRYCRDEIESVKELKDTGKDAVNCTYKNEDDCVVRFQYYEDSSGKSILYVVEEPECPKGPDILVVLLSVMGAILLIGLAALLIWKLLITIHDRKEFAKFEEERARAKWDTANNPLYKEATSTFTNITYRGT
Description: I. Inhibition of Radiolabeled (^125 I) Fibrinogen Binding Assay, which is essentially based on the method described in Proc. Natl. Acad. Sci. U.S.A. Vol. 83, pp. 5708-5712, August 1986, and is as follows.
Platelets are washed free of plasma constituents by the albumin density-gradient technique. In each experimental mixture platelets in modified Tyrode's buffer are stimulated with human α-thrombin at 22°-25° C. for 10 minutes (3.125×10" platelets per liter and thrombin at […]). Hirudin is then added at a 25-fold excess for 5 minutes before addition of the radiolabeled ligand and any competing ligand. After these additions, the final platelet count in the mixture is 1×10"/liter. After incubation for an additional 30 minutes at 22°-25° C., bound and free ligand are separated by centrifuging 50 μl of the mixture through 300 μl of 20% sucrose at 12,000 xg for 4 minutes. The platelet pellet is then separated from the rest of the mixture to determine platelet-bound radioactivity. Nonspecific binding is measured in mixtures containing an excess of unlabeled ligand. When binding curves are analyzed by Scatchard analysis, nonspecific binding is derived as a fitted parameter from the binding isotherm by means of a computerized program. To determine the concentration of each inhibitory compound necessary to inhibit 50% of fibrinogen binding to thrombin-stimulated platelets (IC50), each compound is tested at 6 or more concentrations with ^125 I-labeled fibrinogen held at 0.176 μmol/liter (60 μg/ml). The IC50 is derived by plotting residual fibrinogen binding against the logarithm of the sample compound's concentration.

[2] = biological target: Human Platelets (Homo sapiens, UniProt P05106+P08514); experiment: Inhibition of fibrinogen-mediated platelet aggregation; format: cell-based; conditions: compound at 100 μM; thrombin-activated human platelets, human fibrinogen added
Human Platelets, sequence (P08514 32-1039): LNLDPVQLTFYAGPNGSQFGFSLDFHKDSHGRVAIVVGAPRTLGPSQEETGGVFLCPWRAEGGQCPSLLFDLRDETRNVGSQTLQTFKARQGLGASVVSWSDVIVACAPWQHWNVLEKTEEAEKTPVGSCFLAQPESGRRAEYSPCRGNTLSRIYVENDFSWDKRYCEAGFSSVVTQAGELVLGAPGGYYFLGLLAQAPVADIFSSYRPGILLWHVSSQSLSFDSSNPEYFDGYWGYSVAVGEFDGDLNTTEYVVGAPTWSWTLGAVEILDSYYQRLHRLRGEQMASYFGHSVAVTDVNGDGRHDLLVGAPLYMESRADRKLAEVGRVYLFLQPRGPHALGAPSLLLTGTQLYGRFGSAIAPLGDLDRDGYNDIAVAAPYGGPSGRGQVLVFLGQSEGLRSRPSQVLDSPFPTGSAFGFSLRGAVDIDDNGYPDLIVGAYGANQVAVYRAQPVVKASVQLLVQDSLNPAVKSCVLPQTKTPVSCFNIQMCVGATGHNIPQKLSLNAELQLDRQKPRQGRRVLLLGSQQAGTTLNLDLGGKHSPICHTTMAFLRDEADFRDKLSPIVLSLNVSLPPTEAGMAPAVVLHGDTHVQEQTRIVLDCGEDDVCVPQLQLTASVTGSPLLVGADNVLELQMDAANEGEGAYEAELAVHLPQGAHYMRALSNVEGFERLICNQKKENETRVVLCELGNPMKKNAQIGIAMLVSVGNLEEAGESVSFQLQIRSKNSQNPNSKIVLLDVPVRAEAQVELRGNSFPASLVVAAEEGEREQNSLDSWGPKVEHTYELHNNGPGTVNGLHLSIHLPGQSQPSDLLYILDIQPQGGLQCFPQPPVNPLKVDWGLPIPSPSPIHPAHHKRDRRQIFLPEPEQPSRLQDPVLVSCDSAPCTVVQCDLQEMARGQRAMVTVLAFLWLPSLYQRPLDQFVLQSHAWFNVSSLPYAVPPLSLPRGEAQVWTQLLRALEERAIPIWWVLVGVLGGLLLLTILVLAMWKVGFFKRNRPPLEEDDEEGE
Human Platelets, sequence (P05106 27-788): as the sequence (P05106 27-788) above
Description: II. Inhibition of Fibrinogen - Mediated Platelet Aggregation, which is essentially based on the method described in Blood, Vol. 66, No. 4, Oct. 1985, pp. 946-952, and is as follows.
Human Platelets were isolated from freshly drawn whole blood and were suspended in 0.14 mol/L NaCl, 2.7 mmol/L […], 12 mmol/L NaHCO3, 0.42 mmol/L Na2 HPO4, 0.55 mmol/L glucose, and 5 mmol/L Hepes, pH 7.35 at 2×10^8 platelets/ml. The suspension was incubated at 37° C. An aliquot of 0.4 ml of platelet suspension was activated by human thrombin at a final concentration of 2 μg/ml of thrombin for one minute. After one minute the reaction was stopped by a thrombin inhibitor. Serial dilution of the compound being tested was then added to the activated platelet, the reaction was allowed to proceed for one minute, followed by the addition of human fibrinogen at a final concentration of […] of fibrinogen. Platelet aggregation was then recorded by an aggregometer. Rate of aggregation was used to calculate IC50.

SMILES	IC50 [1] [µM]	inhibition at 100 µM [2] [%]
CC(C)[C@H](NC(=O)[C@H](CC(=O)O)NC(=O)CNC(=O)C1CCNCC1)C(=O)O [Piperidine-4-carboxylglycyl-L-Aspartyl-L-Valine] (H-[Inp]GDV-OH)	10.5	86
CC(C)[C@H](NC(=O)[C@H](CC(=O)O)NC(=O)CNC(=O)C1CCCNC1)C(=O)O (stereo partly drawn) [Piperidine-3-Carboxylglycyl-L-Aspartyl-L-Valine]	> 64	78
CC(C)[C@H](NC(=O)[C@H](CC(=O)O)NC(=O)CNC(=O)C1CCN(C(=N)N)CC1)C(=O)O [1-Amidinopiperidine-4-Carboxylglycyl-L-Aspartyl-L-Valine]	1.8	92
CC(C)[C@H](NC(=O)[C@H](CC(=O)O)NC(=O)CNC(=O)C1CCCN(C(=N)N)C1)C(=O)O (stereo partly drawn) [N-amidinopiperidine-3-carboxylglycyl-L-aspartyl-L-valine]	10.5	87

Source: patent US5051405A, “Anti-thrombotic peptides and pseudopeptides” (Rhone-Poulenc Rorer Pharmaceuticals Inc., priority 1989, dated 1991)
